Test results taken from ChEMBL document CHEMBL1151717, “In vivo active aldosterone synthase inhibitors with improved selectivity: lead optimization providing a series of pyridine substituted 3,4-dihydro-1H-quinolin-2-one derivatives” (J Med Chem, 2008).

Key:
[1] = Cmax in Wistar rat at 25 mg/kg, po; type: ADME, organism-based; set-up: dose 25 mg/kg, route oral; conditions: in vivo
[2] = AUC (0 to infinity) in Wistar rat at 1 mg/kg, iv; type: ADME, organism-based; set-up: time infinity, dose 1 mg/kg, route intravenous; conditions: plasma
Cytochrome P450 1A2 = target: T1, Cytochrome P450 1A2 (Homo sapiens, UniProt P05177)
T1 sequence (P05177 whole entry): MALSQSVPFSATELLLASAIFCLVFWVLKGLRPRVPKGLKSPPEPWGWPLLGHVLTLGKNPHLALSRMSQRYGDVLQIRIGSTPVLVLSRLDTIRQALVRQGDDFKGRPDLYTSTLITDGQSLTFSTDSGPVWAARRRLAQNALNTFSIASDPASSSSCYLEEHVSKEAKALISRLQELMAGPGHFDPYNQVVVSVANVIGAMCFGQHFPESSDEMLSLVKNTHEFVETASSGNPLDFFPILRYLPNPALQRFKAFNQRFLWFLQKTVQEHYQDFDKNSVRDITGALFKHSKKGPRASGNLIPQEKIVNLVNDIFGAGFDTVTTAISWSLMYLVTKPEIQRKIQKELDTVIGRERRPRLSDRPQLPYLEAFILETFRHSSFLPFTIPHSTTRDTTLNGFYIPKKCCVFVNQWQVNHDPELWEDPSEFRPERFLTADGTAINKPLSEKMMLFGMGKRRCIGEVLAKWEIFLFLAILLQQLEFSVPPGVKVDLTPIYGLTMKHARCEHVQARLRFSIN

CYP19 (aromatase) = target: T2, CYP19 (aromatase) (Homo sapiens, UniProt P11511); experiment: Inhibition of human placental CYP19 at 500 nM; type: functional
T2 sequence (P11511 whole entry): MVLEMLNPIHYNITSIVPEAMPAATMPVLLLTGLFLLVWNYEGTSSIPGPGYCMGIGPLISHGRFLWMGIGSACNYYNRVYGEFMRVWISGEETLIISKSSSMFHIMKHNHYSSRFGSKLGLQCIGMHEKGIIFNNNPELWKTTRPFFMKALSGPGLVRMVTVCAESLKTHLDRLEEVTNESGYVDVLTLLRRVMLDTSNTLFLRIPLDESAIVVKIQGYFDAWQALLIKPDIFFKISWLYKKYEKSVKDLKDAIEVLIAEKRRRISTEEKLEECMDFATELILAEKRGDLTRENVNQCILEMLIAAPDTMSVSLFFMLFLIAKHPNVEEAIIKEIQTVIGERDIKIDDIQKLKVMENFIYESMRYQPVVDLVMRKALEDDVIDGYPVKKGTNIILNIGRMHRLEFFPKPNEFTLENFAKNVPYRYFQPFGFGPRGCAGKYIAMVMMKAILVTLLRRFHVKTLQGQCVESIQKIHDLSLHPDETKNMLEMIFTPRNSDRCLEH

[3] = AUC (0 to infinity) in Wistar rat at 5 mg/kg, po by cassette dosing; type: ADME, organism-based; set-up: time infinity, dose 5 mg/kg, route oral; conditions: plasma
[4] = Protein binding in rat plasma at 3 uM after 1 hr; type: ADME, cell-free; conditions: read-out: PPB (converted)
[5] = Terminal half life in Wistar rat at 1 mg/kg, iv; type: ADME, organism-based; set-up: dose 1 mg/kg, route intravenous; conditions: in vivo, read-out: beta t1/2 (converted)
[6] = Tmax in Wistar rat at 25 mg/kg, po; type: ADME, organism-based; set-up: dose 25 mg/kg, route oral; conditions: in vivo
[7] = Protein binding in human plasma at 3 uM after 1 hr; type: ADME, cell-free; conditions: read-out: PPB (converted)
Cytochrome P450 2D6 = Cytochrome P450 2D6 (Homo sapiens, UniProt P10635); experiment: Inhibition of human recombinant CYP2D6 expressed in baculovirus-infected insect microsomes; type: ADME, Microsome; conditions: read-out: IC50
Sequence of Cytochrome P450 2D6 (P10635 whole entry): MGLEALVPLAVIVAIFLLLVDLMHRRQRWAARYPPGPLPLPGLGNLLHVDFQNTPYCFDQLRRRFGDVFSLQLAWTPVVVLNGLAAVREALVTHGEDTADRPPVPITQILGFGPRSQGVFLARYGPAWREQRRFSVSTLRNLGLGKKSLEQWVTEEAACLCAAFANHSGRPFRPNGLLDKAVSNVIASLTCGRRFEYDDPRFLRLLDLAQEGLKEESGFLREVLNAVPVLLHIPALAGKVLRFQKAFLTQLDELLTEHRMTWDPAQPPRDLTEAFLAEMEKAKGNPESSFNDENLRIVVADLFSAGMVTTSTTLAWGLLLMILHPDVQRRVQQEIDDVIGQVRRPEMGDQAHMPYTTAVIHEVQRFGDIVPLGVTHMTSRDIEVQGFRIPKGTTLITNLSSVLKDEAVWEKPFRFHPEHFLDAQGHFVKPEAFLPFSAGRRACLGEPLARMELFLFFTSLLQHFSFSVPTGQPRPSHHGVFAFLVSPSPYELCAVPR

[8] = AUC (0 to infinity) in Wistar rat at 25 mg/kg, po; type: ADME, organism-based; set-up: time infinity, dose 25 mg/kg, route oral; conditions: plasma
CYP1A2 = target: T3, CYP1A2 (Homo sapiens, UniProt P05177); experiment: Inhibition of human recombinant CYP1A2 expressed in baculovirus-infected insect microsomes at 2 uM; type: ADME, Microsome
T3 sequence (P05177 whole entry): T1 sequence (P05177 whole entry)

[9] = Oral bioavailability in Wistar rat at 25 mg/kg; conditions: in vivo
[10] = Terminal half life in Wistar rat at 5 mg/kg, po by cassette dosing; type: ADME, organism-based; set-up: dose 5 mg/kg, route oral; conditions: in vivo, read-out: beta t1/2 (converted)
[11] = Tmax in Wistar rat at 5 mg/kg, po by cassette dosing; type: ADME, organism-based; set-up: dose 5 mg/kg, route oral; conditions: in vivo
[12] = Cmax in Wistar rat at 5 mg/kg, po by cassette dosing; type: ADME, organism-based; set-up: dose 5 mg/kg, route oral; conditions: in vivo
Cytochrome P450 2B6 = target: T4, Cytochrome P450 2B6 (Homo sapiens, UniProt P20813); experiment: Inhibition of human recombinant CYP2B6 expressed in baculovirus-infected insect microsomes; type: ADME, Microsome
T4 sequence (P20813 whole entry): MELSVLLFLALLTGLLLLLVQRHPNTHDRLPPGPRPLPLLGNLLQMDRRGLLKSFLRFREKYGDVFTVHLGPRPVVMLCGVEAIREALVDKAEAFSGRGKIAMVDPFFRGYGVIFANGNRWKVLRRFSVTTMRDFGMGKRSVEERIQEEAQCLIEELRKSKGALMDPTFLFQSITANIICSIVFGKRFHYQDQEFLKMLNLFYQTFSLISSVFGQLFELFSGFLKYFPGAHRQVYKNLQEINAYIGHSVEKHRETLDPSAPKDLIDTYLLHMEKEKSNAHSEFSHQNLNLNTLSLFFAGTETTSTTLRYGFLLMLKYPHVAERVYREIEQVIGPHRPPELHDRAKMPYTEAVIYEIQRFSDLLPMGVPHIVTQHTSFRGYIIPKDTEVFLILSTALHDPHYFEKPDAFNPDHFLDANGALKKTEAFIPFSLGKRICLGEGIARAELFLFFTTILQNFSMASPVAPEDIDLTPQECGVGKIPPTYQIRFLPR

[13] = Terminal half life in Wistar rat at 25 mg/kg, po; type: ADME, organism-based; set-up: dose 25 mg/kg, route oral; conditions: in vivo, read-out: beta t1/2 (converted)
Cytochrome P450 2C9 = Cytochrome P450 2C9 (Homo sapiens, UniProt P11712); experiment: Inhibition of human recombinant CYP2C9 expressed in baculovirus-infected insect microsomes; type: ADME, Microsome
Sequence of Cytochrome P450 2C9 (P11712 whole entry): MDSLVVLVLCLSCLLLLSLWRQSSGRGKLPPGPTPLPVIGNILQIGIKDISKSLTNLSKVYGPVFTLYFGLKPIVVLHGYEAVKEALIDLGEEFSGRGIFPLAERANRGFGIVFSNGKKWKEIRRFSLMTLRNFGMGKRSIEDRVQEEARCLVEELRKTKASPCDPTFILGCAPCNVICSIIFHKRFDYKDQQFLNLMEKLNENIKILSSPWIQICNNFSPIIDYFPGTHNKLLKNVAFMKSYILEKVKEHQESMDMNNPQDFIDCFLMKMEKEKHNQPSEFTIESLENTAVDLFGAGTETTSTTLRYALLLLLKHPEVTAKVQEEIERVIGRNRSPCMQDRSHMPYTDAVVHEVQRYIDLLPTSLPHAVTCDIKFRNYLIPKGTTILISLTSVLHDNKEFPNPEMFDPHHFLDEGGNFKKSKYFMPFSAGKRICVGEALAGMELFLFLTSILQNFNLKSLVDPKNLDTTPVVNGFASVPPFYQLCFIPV

CYP17 = target: T5, CYP17 (Homo sapiens, UniProt P05093); experiment: in vitro; conditions: human CYP17 expressed in Escherichia coli
T5 sequence (P05093 whole entry): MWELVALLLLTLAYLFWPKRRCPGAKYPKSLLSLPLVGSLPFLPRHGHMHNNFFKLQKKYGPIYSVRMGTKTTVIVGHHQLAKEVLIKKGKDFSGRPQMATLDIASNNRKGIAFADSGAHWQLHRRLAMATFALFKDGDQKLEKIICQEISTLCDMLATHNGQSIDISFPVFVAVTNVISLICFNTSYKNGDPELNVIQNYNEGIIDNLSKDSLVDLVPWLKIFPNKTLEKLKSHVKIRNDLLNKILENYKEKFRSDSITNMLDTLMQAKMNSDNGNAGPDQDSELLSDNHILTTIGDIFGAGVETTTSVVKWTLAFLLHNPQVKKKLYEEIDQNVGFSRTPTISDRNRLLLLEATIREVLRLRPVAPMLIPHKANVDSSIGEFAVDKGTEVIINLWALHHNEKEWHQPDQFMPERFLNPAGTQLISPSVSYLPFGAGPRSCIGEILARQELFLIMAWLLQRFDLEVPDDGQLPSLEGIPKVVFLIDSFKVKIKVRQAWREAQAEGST
Description: Inhibition of human CYP17 expressed in Escherichia coli at 2.5 uM

Cytochrome P450 3A4 = Cytochrome P450 3A4 (Homo sapiens, UniProt P08684); experiment: Inhibition of human recombinant CYP3A4 expressed in baculovirus-infected insect microsomes; type: ADME, Microsome
Sequence of Cytochrome P450 3A4 (P08684 whole entry): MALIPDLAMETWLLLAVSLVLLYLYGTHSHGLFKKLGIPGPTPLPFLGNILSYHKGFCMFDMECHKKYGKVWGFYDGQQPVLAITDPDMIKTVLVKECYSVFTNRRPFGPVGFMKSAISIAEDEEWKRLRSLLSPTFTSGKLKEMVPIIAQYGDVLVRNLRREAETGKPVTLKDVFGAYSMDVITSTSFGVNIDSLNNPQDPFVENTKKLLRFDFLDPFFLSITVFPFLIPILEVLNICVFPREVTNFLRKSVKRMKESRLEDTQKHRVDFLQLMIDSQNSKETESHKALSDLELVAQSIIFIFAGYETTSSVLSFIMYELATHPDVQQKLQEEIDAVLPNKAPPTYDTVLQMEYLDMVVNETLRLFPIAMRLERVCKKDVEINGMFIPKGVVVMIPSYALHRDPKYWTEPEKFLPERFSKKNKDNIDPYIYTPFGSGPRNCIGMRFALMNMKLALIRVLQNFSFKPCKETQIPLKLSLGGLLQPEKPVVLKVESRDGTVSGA

SMILES: O=C1CCc2cc(-c3cccnc3)ccc2N1
- Cmax [1]: 1540 ng/mL
- AUC(0-inf) [2]: 270 ng·h/mL
- IC50 (Cytochrome P450 1A2): 1.95 µM
- inhibition at 0.5 µM (CYP19 (aromatase)): 21%
- AUC(0-inf) [3]: 1750 ng·h/mL
- fraction unbound at 1 h, 3 µM [4]: 0.4
- half-life [5]: 1.7 h
- Tmax [6]: 1 h
- fraction unbound at 1 h, 3 µM [7]: 0.39
- IC50 (Cytochrome P450 2D6): 171 µM
- AUC(0-inf) [8]: 4760 ng·h/mL
- inhibition at 2 µM (CYP1A2): 50%
- bioavailability [9]: 71%
- half-life [10]: 3.8 h
- Tmax [11]: 4 h
- Cmax [12]: 261 ng/mL
- IC50 (Cytochrome P450 2B6): < 50 µM
- half-life [13]: 1.2 h
- IC50 (Cytochrome P450 2C9): 58.9 µM
- inhibition at 2.5 µM (CYP17): 41%
- IC50 (Cytochrome P450 3A4): 127 µM
